Values after ≈ are worked out from the molar mass of the structure shown. Where two headings read alike, the source gives them in different places.

Assay in all cases: Antibiotic resistance profile of clinical isolate (Table S1)
For one test, the system named is K. pneumoniae 1711. It counts as cell-based, Klebsiella pneumoniae. Particulars: Table S1, K. pneumoniae 1711; for MIC: Klebsiella pneumoniae, read-out: MIC. As to the method: (§1) Each strain was grown in Mueller Hinton Broth (MH Broth), and 5 × 10^5 CFU/mL was used to evaluate antibacterial activity. Clinical carbapenem-resistant K. pneumoniae and E. coli isolates were collected at the AOU of Virology and Microbiology of the University of Campania “Luigi Vanvitelli”. […]
(§2) Table S1. Antibiotic resistance profile of K. pneumoniae and E. coli clinical isolates . MIC: Minimum Inhibitory
(§3) Concentration was expressed in µg/mL; S: Sensible; I: Intermediate; R: Resistant.
(§4) Antibiotic Resistance Profile of the Clinical Isolated Bacteria
(§5) Antibiotics MIC (µg/mL) Interpretation […]

Another test deals with K. pneumoniae 1745. Type of test: cell-based, Klebsiella pneumoniae. Particulars: Table S1, K. pneumoniae 1745; for MIC: Klebsiella pneumoniae, read-out: MIC. How it is done: as §1, §2, §3, §4, §5
A further test concerns E. coli 2267. It counts as cell-based, Escherichia coli. Particulars: Table S1, E. coli 2267; for MIC: Escherichia coli, read-out: MIC. As to the method: as §1, §2, §3, §4, §5
Another test deals with K. pneumoniae 311. It counts as cell-based, Klebsiella pneumoniae. Particulars: for MIC: Klebsiella pneumoniae. How it is done:
as §1, §2, §3, §4, §5

Another test concerns E. coli 716. Type of test: cell-based, Escherichia coli. To be noted: for MIC: Escherichia coli. How it is done: as §1, §2, §3, §4, §5
The subject of a further test is E. coli 1376. Type of test: cell-based, Escherichia coli. Particulars: for MIC: Escherichia coli. How it is done:
as §1, §2, §3, §4, §5

The test system of the next test is E. coli 1441. Type of test: cell-based, Escherichia coli. To be noted: for MIC: Escherichia coli. How it is done:
as §1, §2, §3, §4, §5

The test system of another test is E. coli 3140. It counts as cell-based, Escherichia coli. To be noted: for MIC: Escherichia coli. How it is done: as §1, §2, §3, §4, §5
The subject of another test is K. pneumoniae 1746. Type of test: cell-based, Klebsiella pneumoniae. How it is done:
as §1, §2, §3, §4, §5

For the compound `C[C@H]1[C@H](NC(=O)/C(=N\OC(C)(C)C(=O)O)c2csc(N)n2)C(=O)N1S(=O)(=O)O` [Aztreonam], the Interpretation result in the test with K. pneumoniae 1711, in the test with K. pneumoniae 1745 and with E. coli 2267 was “R” in each case.

As to `CO/N=C(\C(=O)N[C@@H]1C(=O)N2C(C(=O)[O-])=C(C[N+]3(C)CCCC3)CS[C@H]12)c1csc(N)n1` [Cefepime], the Interpretation result in the test on K. pneumoniae 1711, with K. pneumoniae 1745 and in the test on E. coli 2267 was “R” each time.

Consider `CO/N=C(\C(=O)N[C@@H]1C(=O)N2C(C(=O)O)=C(COC(N)=O)CS[C@H]12)c1ccco1` [Cefuroxime], for which the MIC in the test with K. pneumoniae 1711, with K. pneumoniae 1745, against K. pneumoniae 311 (311), in the test with E. coli 716 (716), in the test on E. coli 1376 (1376) and in the test with E. coli 1441 (1441) was more than 8 µg/mL each time. The MIC against E. coli 3140 (3140) and in the test with E. coli 2267 was more than 8 µg/mL each time. Besides, the Interpretation result in the test with K. pneumoniae 1711 is on record as “R”; in the test with K. pneumoniae 1745, “R”; in the test with K. pneumoniae 311 (Table S1, K. pneumoniae 311) it was “R”; with E. coli 716 (Table S1, E. coli 716) it was “R”; in the test on E. coli 1376 (Table S1, E. coli 1376), “R”; in the test with E. coli 1441 (Table S1, E. coli 1441) it was “R”. Moreover, the Interpretation entry in the test with E. coli 3140 (Table S1, E. coli 3140) is reported as “R”; in the test with E. coli 2267 it was “R”.

Regarding `CO[C@@]1(NC(=O)C(C(=O)O)c2ccsc2)C(=O)N2[C@@H](C(=O)O)C(C)(C)S[C@@H]21` (stereo partly shown) [Temocillin], the MIC in the test with K. pneumoniae 1711 is more than 32 µg/mL; in the test with K. pneumoniae 1745, more than 32 µg/mL; with K. pneumoniae 311 (Table S1, K. pneumoniae 311, read-out: MIC) it was more than 32 µg/mL; in the test with E. coli 716 (Table S1, E. coli 716, read-out: MIC) it was more than 32 µg/mL; in the test on E. coli 1376 (Table S1, E. coli 1376, read-out: MIC) it was more than 32 µg/mL; in the test with E. coli 1441 (Table S1, E. coli 1441, read-out: MIC) it was 8 µg/mL (≈ 19.3 µM). The MIC in the test on E. coli 3140 (Table S1, E. coli 3140, read-out: MIC) was more than 32 µg/mL; with E. coli 2267, more than 32 µg/mL. Moreover, the Interpretation result with K. pneumoniae 1711 is recorded as “R”; with K. pneumoniae 1745, “R”; with K. pneumoniae 311 (Table S1, K. pneumoniae 311), “R”; with E. coli 716 (Table S1, E. coli 716), “R”; in the test with E. coli 1376 (Table S1, E. coli 1376), “R”; in the test on E. coli 1441 (Table S1, E. coli 1441) it was “S”. Moreover, the Interpretation result in the test on E. coli 3140 (Table S1, E. coli 3140) was “R”; with E. coli 2267 it was “R”.

`C[C@@H]1O[C@@H]1P(=O)(O)O` [Fosfomycin]: the MIC is not above 16 µg/mL against K. pneumoniae 1746 (Klebsiella pneumoniae, 1746); 32 µg/mL (≈ 232 µM) in the test with K. pneumoniae 1711; not above 16 µg/mL with K. pneumoniae 1745; not above 16 µg/mL in the test with K. pneumoniae 311 (311); not above 16 µg/mL against E. coli 716 (716); more than 64 µg/mL with E. coli 1376 (1376). Also, the MIC in the test on E. coli 1441 (1441) and in the test on E. coli 2267 was not above 16 µg/mL each time. Also, the Interpretation entry with K. pneumoniae 1746 (Table S1, K. pneumoniae 1746) is recorded as “S”; with K. pneumoniae 1711, “S”; in the test on K. pneumoniae 1745, “S”; in the test on K. pneumoniae 311 (Table S1, K. pneumoniae 311) it was “S”; with E. coli 716 (Table S1, E. coli 716), “S”; with E. coli 1376 (Table S1, E. coli 1376), “R”. Further, the Interpretation entry in the test on E. coli 1441 (Table S1, E. coli 1441) was “S”; in the test with E. coli 2267, “S”.

For `CN(C)c1cc(NC(=O)CNC(C)(C)C)c(O)c2c1C[C@H]1C[C@H]3[C@H](N(C)C)C(O)=C(C(N)=O)C(=O)[C@@]3(O)C(O)=C1C2=O` [Tigecycline], the MIC against E. coli 716 (716) is more than 2 µg/mL; in the test on E. coli 1376 (1376), not above 0.5 µg/mL; in the test on E. coli 1441 (1441), not above 0.5 µg/mL; in the test on E. coli 2267 it was more than 2 µg/mL. The Interpretation entry in the test with E. coli 716 (Table S1, E. coli 716) is “R”; with E. coli 1376 (Table S1, E. coli 1376), “S”; in the test with E. coli 1441 (Table S1, E. coli 1441) it was “S”; in the test with E. coli 2267, “R”.

On to `O=C1CN(/N=C/c2ccc([N+](=O)[O-])o2)C(=O)N1` [Nitrofurantoin], for which the MIC in the test on E. coli 3140 (3140) is not above 16 µg/mL. Moreover, the Interpretation entry in the test with E. coli 3140 (Table S1, E. coli 3140) is reported as “S”.

As for Colistin, in the test with K. pneumoniae 1746 (Table S1, K. pneumoniae 1746), the Interpretation entry was “S” and the MIC turned out to be 0.25 µg/mL.

Compound `CCn1cc(C(=O)O)c(=O)c2cc(F)c(N3CCNCC3)cc21` [Norfloxacin] registered an MIC against E. coli 3140 (3140) not above 0.5 µg/mL. Moreover, the Interpretation entry in the test on E. coli 3140 (Table S1, E. coli 3140) is “S”.

On to `CC(C)(O/N=C(\C(=O)N[C@@H]1C(=O)N2C(C(=O)[O-])=C(C[N+]3(CCNC(=O)c4ccc(O)c(O)c4Cl)CCCC3)CS[C@H]12)c1csc(N)n1)C(=O)O` [Cefiderocol], for which the Interpretation entry was “S” in the test on K. pneumoniae 1746 (Table S1, K. pneumoniae 1746) and “I” in the test on K. pneumoniae 1711.

What is called MIC is the smallest concentration in the dilution series that meets the test's criterion for growth inhibition.

The record behind these values is PMC12024264, “Frog Skin Peptides Hylin-a1, AR-23, and RV-23: Promising Tools Against Carbapenem-Resistant Escherichia coli and Klebsiella pneumoniae Infections” (Antibiotics, 2025).
